{
  "source": "patent US4370459A",
  "about": "“Polymerizing unsaturated monomers with gem-diperoxyester catalyst” (priority 1980, dated 1983)",
  "key": {"[1]": {"test": "Hot block gel tests with polyester resin (curing)", "conditions": "0.75 % Wt used", "description": "The unsaturated polyester resins cured by the present process comprises those polyesters described in U.S. Pat. No. 4,129,613, the disclosure thereof being incorporated by reference herein. The following Table IV is typical of the improved results obtained with the present compounds.\nHOT BLOCK GEL TESTS WITH POLYESTER RESIN\nUSING VARIOUS GEM-DIPEROXYESTERS\nResin: USS Chemical MR-941 (Isophthalic)\nBlock Temp.: 180 ± 1° F. (82° C.)\nPeroxide Concentration Corrected for Purity, […]"}, "[2]": {"test": "Half-lives of gem-diperoxyesters (10 hour half-life temperature)", "format": "physicochemical", "conditions": "0.2M in benzene", "source_text": "HALF-LIFES OF VARIOUS GEM-DIPEROXYESTERS"}, "[3]": {"test": "Suspension polymerization of vinyl chloride monomer in pop bottles with gem-diperoxyester initiators", "description": "A series of polymerizations was performed to illustrate the improved efficiencies of the new compounds as initiators of vinyl chloride monomer. 2,2-Bis(2-ethyl hexanoylperoxy)butane (KP-A) is one compound that can be made by the procedures of the above referenced Japanese patents and was included as typical of the prior art.\nThe data in Table III were obtained in the following manner:\nThe suspension polymerizations were performed in pop bottles using uninhibited monomer. Duplicate bottles were analyzed at each polymerization time interval. The following table lists some general information about the polymerization procedure used.\nAfter the desired amounts of reactants were added to the pop bottles, they were capped, the contents almost melted, and the bottles placed in a rotating constant temperature bath at the temperatures and for the times shown in Table III. The bottles were frozen before venting-off excess monomer. The polymer was filtered, washed, and dried. All initiator concentrations shown have been corrected for purity."}, "[4]": {"conditions": "SET 1, block temp. 180 ± 1° F. (82° C.)"}, "[5]": {"conditions": "SET 1, 7 hrs. at 22° C., 0.10 % Wt. used"}, "[6]": {"conditions": "SET 2, 7 hrs. at 40° C., 4.01 × 10^-4 moles initiator/100g VCM"}, "[7]": {"conditions": "SET 3, 6 hrs. at 50° C., 2.50 × 10^-4 moles initiator/100g VCM"}, "[8]": {"conditions": "SET 2, block temp. 180 ± 1° F. (82° C.)"}, "[9]": {"conditions": "SET 1, 7 hrs. at 22° C., 0.20 % Wt. used"}, "[10]": {"conditions": "SET 4, 5.5 hrs. at 55° C., 1.25 × 10^-4 moles initiator/100g VCM"}, "[11]": {"conditions": "SET 4, 5.5 hrs. at 55° C., 1.75 × 10^-4 moles initiator/100g VCM"}, "[12]": {"conditions": "SET 5, 5 hrs. at 60° C., 1.25 × 10^-4 moles initiator/100g VCM"}, "[13]": {"conditions": "SET 5, 5 hrs. at 60° C., 1.75 × 10^-4 moles initiator/100g VCM"}, "[14]": {"conditions": "SET 3, 6 hrs. at 50° C., 1.50 × 10^-4 moles initiator/100g VCM"}},
  "data": [
    {"compound": "3,3-bis(neodecanoylperoxy)pentane [KP-C]", "values": [
      {"measurement": "Peak Temp (exotherm)", "setting": "[1]; [4]", "result": 225, "unit": "°F."},
      {"measurement": "10 Hour Half-Life Temperature", "setting": "[2]", "result": 23.3, "unit": "°C"},
      {"measurement": "% Conversion", "setting": "[3]; [5]", "result": 27.8, "unit": "%"},
      {"measurement": "% Conversion", "setting": "[3]; [6]", "result": 63.1, "unit": "%"},
      {"measurement": "% Conversion", "setting": "[3]; [7]", "result": 38.0, "unit": "%"}
    ]},
    {"compound": "CC(C)(C)C1CCC(OC(=O)OOC(=O)OC2CCC(C(C)(C)C)CC2)CC1", "note": "(centres unmarked) [DBCPD, Di4-t-butyl cyclohexylperoxydicarbonate, reference compound]", "values": [
      {"measurement": "Peak Temp (exotherm)", "setting": "[1]; [4]", "result": 244, "unit": "°F."},
      {"measurement": "Peak Temp (exotherm)", "setting": "[1]; [8]", "result": 260, "unit": "°F."}
    ]},
    {"compound": "CCCCC(CC)C(=O)OOC(C)(CC)OOC(=O)C(CC)CCCC", "note": "(centres unmarked) [KP-A, 2,2-Bis(2-Ethyl Hexanoylperoxy)Butane, reference compound]", "values": [
      {"measurement": "Peak Temp (exotherm)", "setting": "[1]; [8]", "result": 275, "unit": "°F."},
      {"measurement": "10 Hour Half-Life Temperature", "setting": "[2]", "result": 43.7, "unit": "°C"},
      {"measurement": "% Conversion", "setting": "[3]; [9]", "result": 5.0, "unit": "%"},
      {"measurement": "% Conversion", "setting": "[3]; [6]", "result": 45.9, "unit": "%"},
      {"measurement": "% Conversion", "setting": "[3]; [7]", "result": 75.85, "unit": "%"},
      {"measurement": "% Conversion", "setting": "[3]; [10]", "result": 53.4, "unit": "%"},
      {"measurement": "% Conversion", "setting": "[3]; [11]", "result": 72.1, "unit": "%"},
      {"measurement": "% Conversion", "setting": "[3]; [12]", "result": 67.8, "unit": "%"},
      {"measurement": "% Conversion", "setting": "[3]; [13]", "result": 83.2, "unit": "%"}
    ]},
    {"compound": "CCC(CC)(OOC(=O)C(C)(C)C)OOC(=O)C(C)(C)C", "note": "[KP-B, 3,3-bis(pivaloylperoxy)pentane]", "values": [
      {"measurement": "Peak Temp (exotherm)", "setting": "[1]; [4]", "result": 221, "unit": "°F."},
      {"measurement": "10 Hour Half-Life Temperature", "setting": "[2]", "result": 24, "unit": "°C"},
      {"measurement": "% Conversion", "setting": "[3]; [5]", "result": 52.2, "unit": "%"},
      {"measurement": "% Conversion", "setting": "[3]; [6]", "result": 90.4, "unit": "%"},
      {"measurement": "% Conversion", "setting": "[3]; [7]", "result": 51.8, "unit": "%"}
    ]},
    {"compound": "CCCCC(CC)C(=O)OOC(CC)(CC)OOC(=O)C(CC)CCCC", "note": "(centres unmarked) [KP-D, 3,3-bis(2-ethylhexanoylperoxy)pentane]", "values": [
      {"measurement": "Peak Temp (exotherm)", "setting": "[1]; [4]", "result": 249, "unit": "°F."},
      {"measurement": "Peak Temp (exotherm)", "setting": "[1]; [8]", "result": 260, "unit": "°F."},
      {"measurement": "10 Hour Half-Life Temperature", "setting": "[2]", "result": 39.7, "unit": "°C"},
      {"measurement": "% Conversion", "setting": "[3]; [9]", "result": 10.7, "unit": "%"},
      {"measurement": "% Conversion", "setting": "[3]; [6]", "result": 75.4, "unit": "%"},
      {"measurement": "% Conversion", "setting": "[3]; [14]", "result": 79.1, "unit": "%"},
      {"measurement": "% Conversion", "setting": "[3]; [7]", "result": 89.1, "unit": "%"},
      {"measurement": "% Conversion", "setting": "[3]; [10]", "result": 69.6, "unit": "%"},
      {"measurement": "% Conversion", "setting": "[3]; [11]", "result": 84.2, "unit": "%"},
      {"measurement": "% Conversion", "setting": "[3]; [12]", "result": 70.5, "unit": "%"},
      {"measurement": "% Conversion", "setting": "[3]; [13]", "result": 83.8, "unit": "%"}
    ]},
    {"compound": "CCC(CC)(OOC(=O)C(C)C)OOC(=O)C(C)C", "note": "[KP-E, 3,3-bis(2-methylpropionylperoxy)pentane]", "values": [
      {"measurement": "% Conversion", "setting": "[3]; [9]", "result": 0.5, "unit": "%"},
      {"measurement": "% Conversion", "setting": "[3]; [6]", "result": 39.6, "unit": "%"},
      {"measurement": "% Conversion", "setting": "[3]; [7]", "result": 74.4, "unit": "%"},
      {"measurement": "% Conversion", "setting": "[3]; [11]", "result": 76.1, "unit": "%"},
      {"measurement": "% Conversion", "setting": "[3]; [12]", "result": 71.5, "unit": "%"},
      {"measurement": "% Conversion", "setting": "[3]; [13]", "result": 86.7, "unit": "%"}
    ]},
    {"compound": "CCC(CC)C(=O)OOC(CC)(CC)OOC(=O)C(CC)CC", "note": "[KP-F, 3,3-Bis(2-Ethyl Butanoylperoxy)Pentane]", "values": [
      {"measurement": "Peak Temp (exotherm)", "setting": "[1]; [8]", "result": 271, "unit": "°F."},
      {"measurement": "10 Hour Half-Life Temperature", "setting": "[2]", "result": 40, "unit": "°C"},
      {"measurement": "% Conversion", "setting": "[3]; [9]", "result": 4.3, "unit": "%"},
      {"measurement": "% Conversion", "setting": "[3]; [6]", "result": 88.3, "unit": "%"},
      {"measurement": "% Conversion", "setting": "[3]; [14]", "result": 82.5, "unit": "%"},
      {"measurement": "% Conversion", "setting": "[3]; [7]", "result": 92.5, "unit": "%"},
      {"measurement": "% Conversion", "setting": "[3]; [10]", "result": 74.1, "unit": "%"},
      {"measurement": "% Conversion", "setting": "[3]; [11]", "result": 85.9, "unit": "%"},
      {"measurement": "% Conversion", "setting": "[3]; [12]", "result": 67.8, "unit": "%"},
      {"measurement": "% Conversion", "setting": "[3]; [13]", "result": 81.8, "unit": "%"}
    ]},
    {"compound": "CCCC(C)C(=O)OOC(CC)(CC)OOC(=O)C(C)CCC", "note": "(centres unmarked) [KP-G, 3,3-bis(2-methylpentanoylperoxy)pentane]", "values": [
      {"measurement": "% Conversion", "setting": "[3]; [9]", "result": 1.6, "unit": "%"},
      {"measurement": "% Conversion", "setting": "[3]; [6]", "result": 67.3, "unit": "%"},
      {"measurement": "% Conversion", "setting": "[3]; [7]", "result": 88.5, "unit": "%"},
      {"measurement": "% Conversion", "setting": "[3]; [10]", "result": 72.8, "unit": "%"},
      {"measurement": "% Conversion", "setting": "[3]; [11]", "result": 86.2, "unit": "%"},
      {"measurement": "% Conversion", "setting": "[3]; [12]", "result": 72.6, "unit": "%"},
      {"measurement": "% Conversion", "setting": "[3]; [13]", "result": 85.9, "unit": "%"}
    ]},
    {"compound": "CCCCC(CC)C(=O)OOC(C)(CC(C)(C)O)OOC(=O)C(CC)CCCC", "note": "(centres unmarked) [KP-H, 2,2-bis(2-ethylhexanoylperoxy)-4-hydroxy-4-methylpentane]", "values": [
      {"measurement": "% Conversion", "setting": "[3]; [11]", "result": 63.9, "unit": "%"},
      {"measurement": "% Conversion", "setting": "[3]; [13]", "result": 58.1, "unit": "%"}
    ]},
    {"compound": "CCC(CC)C(=O)OOC(C)(CC(C)(C)O)OOC(=O)C(CC)CC", "note": "[KP-I, 2,2-bis(2-ethylbutanoylperoxy)-4-hydroxy-4-methylpentane]", "values": [
      {"measurement": "% Conversion", "setting": "[3]; [11]", "result": 66.1, "unit": "%"},
      {"measurement": "% Conversion", "setting": "[3]; [13]", "result": 65.4, "unit": "%"}
    ]}
  ]
}
